According to ChEMBL document CHEMBL4651402, “Screening of ~5500 FDA-approved drugs and clinical candidates for anti-SARS-CoV-2 activity” (2021):
Numbered stars: 1 amine (or outer) side, 2 acyl side, 3 side chain; on linkers, the order of the positions; unused ones are H or OH. Bridge positions count the residues as written; N and C are the ends. Square brackets hold non-standard residues; d marks the D form. Peptide text beside a SMILES is read from it. I, II: the chains in the order shown. Actinocin(1to9) = Cc1c2oc3c(C)ccc(C(=O)[*:2])c3nc-2c(C(=O)[*:1])c(N)c1=O; NMeV = CN[C@H](C(=O)O)C(C)C; Sar = CNCC(=O)O

Test system: SARS-CoV-2
Assay: microbe, parasite or virus in culture
Conditions: Severe acute respiratory syndrome coronavirus 2, Vero C1008, 48 h

CCCN1CCOC2c3cc(O)ccc3CCC21 (centres undefined)
IC50: > 20 µM
IC50 (read-out: pIC50 (converted)): > 20 µM

CC(C)CN(C[C@@H](O)[C@H](Cc1ccccc1)NC(=O)O[C@H]1CCOC1)S(=O)(=O)c1ccc(N)cc1
IC50: > 20 µM
IC50 (read-out: pIC50 (converted)): > 20 µM

CC(=O)N[C@@H]1[C@@H](O)[C@@H](O)[C@@H](CO)O[C@@H]1O
IC50: > 20 µM
IC50 (read-out: pIC50 (converted)): > 20 µM

O=P(O)(O)OC[C@H](O)CO
IC50: > 20 µM
IC50 (read-out: pIC50 (converted)): > 20 µM

COc1ccc(N2CCN(c3cccc(C)c3)CC2)nn1
IC50: > 20 µM
IC50 (read-out: pIC50 (converted)): > 20 µM

S=C(Nc1ccccc1)Nc1nccs1
IC50: > 20 µM
IC50 (read-out: pIC50 (converted)): > 20 µM

CCN(CC)C(=O)N[C@@H]1CC2c3cccc4[nH]cc(c34)CC2N(C)C1 (some centres undefined)
IC50: > 20 µM
IC50 (read-out: pIC50 (converted)): > 20 µM

CC(C)OC(=O)[C@H](C)NP(=O)(OC[C@H]1O[C@@H](n2ccc(=O)[nH]c2=O)[C@](C)(F)[C@@H]1O)Oc1ccccc1 (some centres undefined)
IC50: > 20 µM
IC50 (read-out: pIC50 (converted)): > 20 µM

COC(=O)C1=COC(O[C@H]2OC(CO)[C@H](O)C(O)C2O)[C@H]2C1C(=O)C[C@@H]2C (some centres undefined)
IC50: > 20 µM
IC50 (read-out: pIC50 (converted)): > 20 µM

CN(C)CCN(Cc1ccccc1)c1ccccc1
IC50: > 20 µM
IC50 (read-out: pIC50 (converted)): > 20 µM

CC(C(O)(Cn1cncn1)c1ccc(F)cc1F)S(C)(=O)=O (centres undefined)
IC50: > 20 µM
IC50 (read-out: pIC50 (converted)): > 20 µM

CC(=O)NC1(c2ccccc2)CCN(CC[C@@H](CN(C)C(=O)c2ccccc2)c2ccc(Cl)c(Cl)c2)CC1
IC50: > 20 µM
IC50 (read-out: pIC50 (converted)): > 20 µM

Oc1ccc2c3c1O[C@H]1[C@@H](O)CC[C@@]4(O)C(C2)N(CC2CCC2)CCC314 (some centres undefined)
IC50: > 20 µM
IC50 (read-out: pIC50 (converted)): > 20 µM

Cc1c(C(=O)N2CCOc3ccc(-c4ccc(N)nc4)cc3C2)ccc(S(C)(=O)=O)c1F
IC50: > 20 µM
IC50 (read-out: pIC50 (converted)): > 20 µM

C[C@H](CN1CCOCC1)C(C(=O)N1CCCC1)(c1ccccc1)c1ccccc1
IC50: > 20 µM
IC50 (read-out: pIC50 (converted)): > 20 µM

O=C(CN1C(=O)c2ccccc2S1(=O)=O)Nc1ccc(O)cc1
IC50: > 20 µM
IC50 (read-out: pIC50 (converted)): > 20 µM

NCC1CCC(C(=O)O)CC1 (centres undefined)
IC50: > 20 µM
IC50 (read-out: pIC50 (converted)): > 20 µM

O=C1CCCC2C3CC(CN12)[C@@H]1CCCCN1C3 (some centres undefined)
IC50: > 20 µM
IC50 (read-out: pIC50 (converted)): > 20 µM

O=C(O)COC[C@H]1CC[C@H](COC(=O)N(c2ccccc2)c2ccc(Cl)cc2)CC1
IC50: > 20 µM
IC50 (read-out: pIC50 (converted)): > 20 µM

CCOC(=O)C1=C(CN2CCOCC2)NC(c2nccs2)=NC1c1ccc(F)cc1Br (centres undefined)
IC50: > 20 µM
IC50 (read-out: pIC50 (converted)): > 20 µM

CN(Cc1cnc2nc(N)nc(N)c2n1)c1ccc(C(=O)NC(CCC(=O)O)C(=O)O)cc1 (centres undefined)
IC50: > 20 µM
IC50 (read-out: pIC50 (converted)): > 20 µM

NC(=O)CC[C@H](NC(=O)Cc1ccccc1)C(=O)O
IC50: > 20 µM
IC50 (read-out: pIC50 (converted)): > 20 µM

CCO[C@@H]1OC(=O)C[C@@H]1NC(=O)[C@@H]1CCCN2C(=O)CC[C@H](NC(=O)c3nccc4ccccc34)C(=O)N12
IC50: > 20 µM
IC50 (read-out: pIC50 (converted)): > 20 µM

C[C@@H]1C\C=C/C=C\C=C/C=C\[C@H](O[C@@H]2O[C@H](C)[C@@H](O)[C@H](N)[C@@H]2O)C[C@@H]2O[C@](O)(C[C@@H](O)C[C@H]3O[C@@H]3/C=C\C(=O)O1)C[C@H](O)[C@H]2C(=O)O
IC50: > 20 µM
IC50 (read-out: pIC50 (converted)): > 20 µM

CC12CCC3C(CCC4CC(O)CCC43C)C1CCC2=O (centres undefined)
IC50: > 20 µM
IC50 (read-out: pIC50 (converted)): > 20 µM

C[C@H](CCC(=O)NCCS(=O)(=O)O)[C@H]1CC[C@H]2[C@@H]3[C@@H](O)CC4C[C@H](O)CC[C@]4(C)[C@H]3CC[C@]12C (some centres undefined)
IC50: > 20 µM
IC50 (read-out: pIC50 (converted)): > 20 µM

C=C1C(=O)OC2C[C@@]3(C)CCC[C@H](C)C3=CC12 (some centres undefined)
IC50: > 20 µM
IC50 (read-out: pIC50 (converted)): > 20 µM

CC12CCC(=O)C=C1CCC1C3CC[C@](C)(O)C3(C)CC(O)[C@@]12F (some centres undefined)
IC50: > 20 µM
IC50 (read-out: pIC50 (converted)): > 20 µM

CCCCCC(=O)O[C@]1(C(C)=O)CCC2C3CCC4=CC(=O)CCC4(C)C3CCC21C (some centres undefined)
IC50: > 20 µM
IC50 (read-out: pIC50 (converted)): > 20 µM

CC(C)(O)[C@@H]1CC[C@](C)(C2[C@@H](O)C[C@@]3(C)[C@H]4C[C@H](O[C@H]5OC(CO)[C@H](O)C(O)C5O)[C@H]5C(C)(C)C(O[C@@H]6OC[C@@H](O)C(O)C6O)CC[C@@]56C[C@@]46CC[C@]23C)O1 (some centres undefined)
IC50: > 20 µM
IC50 (read-out: pIC50 (converted)): > 20 µM

CN(C(=O)CO/N=C(/c1ccccc1)c1ccc2c(c1)CN1CC(=O)NC1=N2)C1CCCCC1
IC50: > 20 µM
IC50 (read-out: pIC50 (converted)): > 20 µM

CNc1nccc(-c2cc3cc(C(=O)N[C@@H](CN(c4ccccc4)c4ncccn4)C(N)=O)ccc3[nH]2)n1
IC50: > 20 µM
IC50 (read-out: pIC50 (converted)): > 20 µM

O=C(O)c1ccc(N[C@H]2OC[C@H](O)[C@@H](O)[C@H]2O)cc1
IC50: > 20 µM
IC50 (read-out: pIC50 (converted)): > 20 µM

CC[C@@H]1CCN[C@H](C(=O)N[C@H]([C@H]2O[C@H](SC)[C@H](O)[C@@H](O)[C@H]2O)[C@H](C)Cl)C1
IC50: > 20 µM
IC50 (read-out: pIC50 (converted)): > 20 µM

CC(C)N(C(=O)CN1C(=O)[C@@H](NC(=O)Nc2cccc(C(=O)O)c2)C(=O)N(c2ccccc2)c2ccccc21)c1ccccc1
IC50: > 20 µM
IC50 (read-out: pIC50 (converted)): > 20 µM

Cc1cc(C)c(CNC(=O)c2cc(Cl)c3c(c2C)OC(C)([C@H]2CC[C@H](N(C)C)CC2)O3)c(=O)[nH]1 (some centres undefined)
IC50: > 20 µM
IC50 (read-out: pIC50 (converted)): > 20 µM

CC12CCCC1C1CC[C@H]3CCCC[C@]3(C)C1CC2 (some centres undefined)
IC50: > 20 µM
IC50 (read-out: pIC50 (converted)): > 20 µM

C[C@@H]1CC[C@@]2(OC1)O[C@H]1C[C@H]3[C@H]4CC[C@H]5C[C@@H](O[C@@H]6O[C@H](CO)[C@@H](O[C@@H]7O[C@H](CO)[C@@H](O)[C@H](O)[C@H]7O)[C@H](O)[C@H]6O)CC[C@@]5(C)[C@H]4CC[C@]3(C)[C@H]1[C@@H]2C
IC50: > 20 µM
IC50 (read-out: pIC50 (converted)): > 20 µM

CC(=O)OCC(=O)[C@@]1(O)CC[C@H]2C3CCC4=CC(=O)C=CC4(C)[C@H]3C(=O)CC21C (some centres undefined)
IC50: > 20 µM
IC50 (read-out: pIC50 (converted)): > 20 µM

O=C(O)c1nn(-c2ccc(S(=O)(=O)O)cc2)c(O)c1/N=N/c1ccc(S(=O)(=O)O)cc1
IC50: > 20 µM
IC50 (read-out: pIC50 (converted)): > 20 µM

COC(=O)C1=C(C)NC(C)=C(C(=O)O[C@@H]2CCN(Cc3ccccc3)C2)[C@H]1c1cccc([N+](=O)[O-])c1
IC50: > 20 µM
IC50 (read-out: pIC50 (converted)): > 20 µM

CCOC(=O)[C@H](CCc1ccccc1)CC1(C(=O)N[C@H]2CCc3ccccc3N(CC(=O)O)C2=O)CCCC1
IC50: > 20 µM
IC50 (read-out: pIC50 (converted)): > 20 µM

COc1ccc(CC(C)C(C)Cc2ccc(OC)c(OC)c2)cc1OC (centres undefined)
IC50: > 20 µM
IC50 (read-out: pIC50 (converted)): > 20 µM

O=C(CO)[C@@H]1CCCN1C(=O)[C@@H]1CCCN1C(=O)NCc1ccccc1
IC50: > 20 µM
IC50 (read-out: pIC50 (converted)): > 20 µM

C#CCN(C)C(C)Cc1ccccc1 (centres undefined)
IC50: > 20 µM
IC50 (read-out: pIC50 (converted)): > 20 µM

C[C@H](N)C(=O)N[C@H](CCC(N)=O)C(=O)O (H-Ala-[dQ]-OH)
IC50: > 20 µM
IC50 (read-out: pIC50 (converted)): > 20 µM

CC(C)C(NC(=O)C(CC(=O)O)NC(=O)C(CCCCN)NC(=O)C(N)CCCNC(=N)N)C(=O)NC(Cc1ccc(O)cc1)C(=O)O (centres undefined) (H-RKDVY-OH; configuration not given here)
IC50: > 20 µM
IC50 (read-out: pIC50 (converted)): > 20 µM

CC(C)C(N)C(=O)NC(Cc1ccc(O)cc1)C(=O)O (stereo not drawn) (H-Val-Tyr-OH; configuration not given here)
IC50: > 20 µM
IC50 (read-out: pIC50 (converted)): > 20 µM

Cc1c2oc3c(C)ccc(C(=O)N[C@@H]4C(=O)N[C@@H](C(C)C)C(=O)N5CCC[C@H]5C(=O)N(C)CC(=O)N(C)[C@@H](C(C)C)C(=O)O[C@@H]4C)c3nc-2c(C(=O)N[C@@H]2C(=O)N[C@@H](C(C)C)C(=O)N3CCC[C@H]3C(=O)N(C)CC(=O)N(C)[C@@H](C(C)C)C(=O)O[C@@H]2C)c(N)c1=O (I: TVP[Sar][NMeV] / II: TVP[Sar][NMeV]; ester I:1-I:C, II:1-II:C; linker I:N-II:N via Actinocin(1to9))
IC50: > 20 µM
IC50 (read-out: pIC50 (converted)): > 20 µM

COc1cc(Br)c(CC2c3cc(OC)c(OC)cc3CCN2C)cc1OC (racemic)
IC50: > 20 µM
IC50 (read-out: pIC50 (converted)): > 20 µM

CC(C)CC(NC(=O)CCN)C(=O)O (racemic)
IC50: > 20 µM
IC50 (read-out: pIC50 (converted)): > 20 µM

C/N=C(\NS(=O)(=O)c1ccc(Cl)cc1)N1C[C@@H](c2ccccc2)C(c2ccc(Cl)cc2)=N1 (racemic)
IC50: > 20 µM
IC50 (read-out: pIC50 (converted)): > 20 µM

CC(C(O)c1ccccc1)N(C)C (racemic)
IC50: > 20 µM
IC50 (read-out: pIC50 (converted)): > 20 µM

CC(C)NCC(O)COc1ccc(CC(N)=O)cc1 (racemic) [ATENOLOL]
IC50: > 20 µM
IC50 (read-out: pIC50 (converted)): > 20 µM

NC(Cc1ccc(Cl)cc1)C(=O)O (racemic) [FENCLONINE]
IC50: > 20 µM
IC50 (read-out: pIC50 (converted)): > 20 µM

COC1=CC(=O)O[C@@H](/C=C/c2ccccc2)C1 (racemic) [KAVAIN]
IC50: > 20 µM
IC50 (read-out: pIC50 (converted)): > 20 µM

CC(C)N1CCN(c2ccc(N3CCN(c4ccc(OC[C@H]5OC[C@](Cn6cncn6)(c6ccc(F)cc6F)O5)cc4)CC3)cc2)C1=O (racemic) [PRAMICONAZOLE]
IC50: > 20 µM
IC50 (read-out: pIC50 (converted)): > 20 µM
